Values joined by “and” are separate entries in the source; they are usually repeats but may differ in a detail not shown here. Equal entries are not always repeated. Where two headings read alike, the source gives them in different places.
Tests used:
[1] = tested on: Staphylococcus aureus ATCC 6538P; experiment: broth microdilution MIC, S. aureus; type: cell-based
Procedure: (§1) The antimicrobial activities of the heteroaromatic ligands, Mn(II) complexes, and commercially available drug streptomycin were tested against standard bacterial strains: Staphylococcus aureus ATCC 6538P, Escherichia coli ATCC 8739, Pseudomonas aeruginosa PAO1 (biofilm model strain), and Pseudomonas aeruginosa LES B58 (clinical isolate). The P. aeruginosa PAO1 and LES B58 isolates were derived from the International Pseudomonas aeruginosa Reference Panel (http://bccm.belspo.be/about-us/bccm-lmg, accessed on 30 March 2021).
(§2) All bacteria species were cultivated in trypticase soy broth (TSB) medium (Biocorp, Warsaw, Poland) for 18 h at 37 °C with shaking (160 rpm). Overnight cultures of bacteria were diluted 1:100 into fresh TSB medium and then placed in each of the 96 wells of a microtiter transparent plate (Greiner, Monroe, NC, USA). The manganese(II) complexes—[Mn-pyOH-SO4]n, Mn-imCHO-NO3, Mn-imCHO-Cl, Mn-dipyCO-NO3—and the ligands—pyOH, pyCOOH—were prepared by dissolving compounds in distilled water. […] The starting stock solution was of 2-mM concentration.
(§3) The quantitative assay of the antibacterial activity was performed by the broth microdilution method, in 96-well microtiter plates, in order to establish the minimum inhibitory concentration (MIC). To this purpose, serial two-fold dilutions of the compounds ranging between 1 and 0.0625 mM were made. The details of the experiment were presented in our previous paper.

[2] = tested on: Escherichia coli ATCC 8739; experiment: broth microdilution MIC, E. coli; type: cell-based
Procedure: as §1, §2, §3

[3] = tested on: Pseudomonas aeruginosa LES B58; experiment: broth microdilution MIC, P. aeruginosa LES B58; type: cell-based
Procedure: as §1, §2, §3

[4] = tested on: Pseudomonas aeruginosa PAO1; experiment: broth microdilution MIC, P. aeruginosa PAO1; type: cell-based; conditions: P. aeruginosa PAO1, planktonic cells
Procedure: as §1, §2, §3

[5] = tested on: P. aeruginosa PAO1 biofilm; experiment: biofilm formation, crystal violet staining assay; type: cell-based, Pseudomonas aeruginosa; conditions: for % Inhibit. Biofilm (0.25 mM) / % Inhibit. Biofilm (0.5 mM): P. aeruginosa PAO1, vs untreated control
Procedure: as §2
To evaluate the effect of the compounds on P. aeruginosa biofilm formation, a crystal violet staining assay was used, following previously described protocols. The concentration of the investigated compounds was in the range 0.0625–1 mM. The amount of biofilm formed was determined by measuring the absorbance at λ = 595 nm with the Infinite M200 PRO microplate reader (Tecan, Männedorf, Switzerland). The measurement results, expressed in absorbance units, were converted into percentages to allow the comparison of numerical data obtained in different experiments.

[6] = target: T1, catalase from the bovine liver (Bos taurus, UniProt P00432); experiment: catalase activity in the presence of the Mn(II) complexes (absorbance at 240 nm); type: biochemical; conditions: 0.5 mM complex, vs catalase alone
T1 construct: The catalase from the bovine liver solution; purchased Sigma–Aldrich; host or cells: bovine liver
T1 sequence (P00432 2-527 limits assumed): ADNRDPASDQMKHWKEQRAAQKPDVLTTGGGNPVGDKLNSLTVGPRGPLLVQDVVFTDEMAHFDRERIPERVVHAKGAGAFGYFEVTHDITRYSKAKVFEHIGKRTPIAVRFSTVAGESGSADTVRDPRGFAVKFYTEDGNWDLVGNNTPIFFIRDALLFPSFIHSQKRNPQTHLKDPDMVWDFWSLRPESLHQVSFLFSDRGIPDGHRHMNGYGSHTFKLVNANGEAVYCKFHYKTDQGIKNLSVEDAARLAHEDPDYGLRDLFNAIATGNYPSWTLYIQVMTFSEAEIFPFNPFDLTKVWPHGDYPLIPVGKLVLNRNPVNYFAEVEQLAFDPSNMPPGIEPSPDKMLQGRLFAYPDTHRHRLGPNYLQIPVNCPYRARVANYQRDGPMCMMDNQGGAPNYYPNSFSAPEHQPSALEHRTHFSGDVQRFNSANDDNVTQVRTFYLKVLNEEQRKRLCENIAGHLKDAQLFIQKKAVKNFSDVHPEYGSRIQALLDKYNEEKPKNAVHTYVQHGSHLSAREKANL
Procedure: First, the complexes were incubated with the catalase in the presence of a phosphate buffer, and then hydrogen peroxide was added thereto. To study the effect of the manganese complexes on the activity of CAT, its performance, in the presence of similar concentrations of the Mn complexes (0.5 mM), was investigated. The percentage of absorbance reduction over time was recorded at 240 nm. The positive control was the catalase sample in the absence of the Mn(II) complex. Figure 12 illustrates the effect of the Mn(II) complexes on the catalase activity.
The effect of the manganese complexes on the activity of catalase (CAT) was determined using the spectrophotometric method. The decrease in absorbance due to hydrogen peroxide depletion was recorded at 240 nm by the V-780 UV-Vis/NIR spectrophotometer (Jasco, Easton, MD, USA). The tests were performed in a 50-mM potassium phosphate buffer (PBS) at 37 °C, pH = 7.0. The catalase from the bovine liver solution (Sigma–Aldrich, St. Louis, MO, USA, lyophilized powder, ≥10,000 units/mg protein) was prepared in the PBS buffer as an initial dilution of ~1000 units/mL at 37 °C. The hydrogen peroxide solution, approximately 0.03% (w/w), was prepared by dilution in the PBS buffer to achieve the absorbance close to 1 a.u, and the PBS was used as a blank. The manganese complexes were diluted in the PBS buffer to stock the concentration of 1 mM. The mixture of 500 µL of the hydrogen peroxide, 1 µL of the catalase (final 1U of catalase activity), and 500 µL of the manganese complexes, previously incubated in a water bath at 37 °C, was added to a quartz cuvette (10 mm, 1 mL), closed by a cover, and placed in the spectrophotometer. The absorbance readings were performed in 10-s intervals during the first minute of the incubation time at 37 °C. The results were presented as the dependence on the percentage of the absorbance reduction over time.

[7] = tested on: primary human fibroblasts (VH10); experiment: cytotoxicity, MTT test; type: cell-based; conditions: VH10 cells, 24 h, 15–1000 µM
Procedure: Primary human fibroblasts (VH10) were cultured at 37 °C in a humidified 5% CO2 atmosphere in plastic dishes in Dulbecco’s modified eagle medium (DMEM) supplemented with 10% heat inactivated fetal calf serum, 2 mM of l-glutamine, and antibiotics (100 units/mL penicillin and 100 µg/mL streptomycin). Cytotoxic properties of manganese complexes were measured by EZcount^TM MTT cell assay kit (HiMedia Laboratories Pvt., Ltd., Mumbai, India) in accordance with the manufacturer’s instructions. Cells were seeded into a 96-well plate and incubated with manganese complexes in the concentration range of 15–1000 µM for 24 h at 37 °C in a humidified atmosphere of 5% CO2. After incubation, a solution of MTT (3-[4,5-dimethylthiazol-2-yl]-2, 5-diphenyl tetrazolium bromide) at a concentration (1 mg/mL) was added to each well. After incubation at 37 °C for 4 h, 100 µL of 0.04 M HCl in isopropanol was added to each well and mixed thoroughly to dissolve the dark blue crystals. The measurement of absorbance of the solution related to the number of live cells was conducted on a TECAN Spark Microplate Reader (TECAN, Männedorf, Switzerland) at 570 nm with a reference wavelength 600 nm. All samples were tested in three independent experiments. Results were normalized to the control.
Inhibitory concentrations (IC50) represent the concentrations of the tested samples required to inhibit 50% cell proliferation and were calculated from the mean values of data from wells.

[8] = tested on: pyoverdine secretion by P. aeruginosa PAO1; experiment: pyoverdine production (spectrofluorometric); type: cell-based, Pseudomonas aeruginosa; conditions: 0.5 mM complexes, 24 h, vs negative control (TSB medium with inoculated bacteria)
Procedure: In the experiment the spectrofluorometric method was used, and data were expressed as the relative light units (RLU).
Pyoverdine determination was performer in TSB medium. Measurement of pyoverdine fluorescence was performed at the excitation wavelength λ = 398 nm and the emission wavelength λ = 455 nm as described previously [66]. Experiments were carried out in triplicate in 96-well black flat-bottomed microtiter plates (Greiner, Monroe, NC, USA) for 24 h in cell-free culture medium using an Infinite M200PRO (Tecan, Männedorf, Switzerland). The assay was performed with the series of Mn(II) complexes (0.5 mM) and streptomycin as a positive control, and TSB medium with inoculated bacteria as a negative control. The siderophore secretion assay was conducted as three independent repeats. The results obtained were not disturbed by the emission band characteristic of the Mn(II) complexes.

[9] = P. aeruginosa LES B58, planktonic cells
[10] = Staphylococcus aureus, ATCC6538P, S. aureus, planktonic cells, read-out: MIC
[11] = Escherichia coli, ATCC8739, planktonic cells, read-out: MIC
[12] = Pseudomonas aeruginosa, LESB58, P. aeruginosa LES B58, planktonic cells, read-out: MIC
[13] = Pseudomonas aeruginosa, read-out: MIC

O.O.O.O.O=[N+]([O-])[O-].O=[N+]([O-])[O-].[Mn+2] [Mn(NO3)2·4H2O]
MIC ([1]; S. aureus, planktonic cells): > 1 mM and > 251 μg/ml
MIC ([2]; planktonic cells): > 1 mM and > 251 μg/ml
MIC [3, 9]: > 1 mM and > 251 μg/ml
MIC [4]: > 1 mM and > 251 μg/ml

O=C(c1ccccn1)c1ccccn1.O=C(c1ccccn1)c1ccccn1.O=[N+]([O-])[O-].O=[N+]([O-])[O-].[Mn+2] [Mn-dipyCO-NO3]
MIC ([1]; S. aureus, planktonic cells): > 1 mM and > 547 μg/ml
% Inhibit. Biofilm (0.25 mM) [5]: 21%
% Inhibit. Biofilm (0.5 mM) [5]: 36%
MIC ([2]; planktonic cells): > 1 mM and > 547 μg/ml
MIC [3, 9]: > 1 mM and > 547 μg/ml
Action on catalase activity [6]: attenuate the catalase activity
MIC [4]: > 1 mM and > 547 μg/ml

Cc1[nH]cnc1C=O.Cc1[nH]cnc1C=O.[Cl-].[Cl-].[Mn+2] [Mn-imCHO-Cl]
MIC ([1]; S. aureus, planktonic cells): > 1 mM and > 346 μg/ml
% Inhibit. Biofilm (0.25 mM) [5]: 24%
% Inhibit. Biofilm (0.5 mM) [5]: 29%
IC50 [7]: > 1 mM
MIC ([2]; planktonic cells): > 1 mM and > 346 μg/ml
MIC [3, 9]: > 1 mM and > 346 μg/ml
Action on catalase activity [6]: attenuate the catalase activity
MIC [4]: > 1 mM and > 346 μg/ml

O.O.O.O.[Cl][Mn][Cl] [MnCl2·4H2O]
MIC ([1]; S. aureus, planktonic cells): > 1 mM and > 198 μg/ml
MIC ([2]; planktonic cells): > 1 mM and > 198 μg/ml
MIC [3, 9]: > 1 mM and > 198 μg/ml
MIC [4]: > 1 mM and > 198 μg/ml

O.O=S(=O)([O-])[O-].[Mn+2] [MnSO4·H2O]
MIC ([1]; S. aureus, planktonic cells): > 1 mM and > 169 μg/ml
MIC ([2]; planktonic cells): > 1 mM and > 169 μg/ml
MIC [3, 9]: > 1 mM and > 169 μg/ml
MIC [4]: > 1 mM and > 169 μg/ml

[H]/N=C(/N)N[C@H]1[C@H](O)[C@@H](O)[C@H](O[C@@H]2O[C@@H](C)[C@](O)(C=O)[C@H]2O[C@@H]2O[C@@H](CO)[C@H](O)[C@@H](O)[C@@H]2NC)[C@@H](N/C(N)=N\[H])[C@@H]1O [Streptomycin, reference compound]
MIC ([1]; Staphylococcus aureus, ATCC6538P): 125 µM
MIC [1, 10]: 73 µg/mL
decrease of pyoverdine production [8]: 96%
MIC [2, 11]: 62.5 µM and 36 µg/mL
MIC ([3]; Pseudomonas aeruginosa, LESB58): 125 µM
MIC [3, 12]: 73 µg/mL
MIC [4, 13]: 62.5 µM and 36 µg/mL

O=C(c1ccccn1)c1ccccn1 [dipyCO, dipyridin-2-ylmethanone]
MIC [1, 10]: > 1000 µM and > 184 µg/mL
inhibition at 1000 µM ([5]; Pseudomonas aeruginosa, PAO1, 1 mM, P. aeruginosa biofilm): 49%
MIC [2, 11]: > 1000 µM and > 184 µg/mL
MIC [3, 12]: > 1000 µM and > 184 µg/mL
MIC [4, 13]: > 1000 µM and > 184 µg/mL

Cc1nc[nH]c1C=O [imCHO, 5(4)-carbaldehyde-4(5)-methylimidazole]
MIC ([1]; S. aureus, planktonic cells): > 1 mM and > 110 μg/ml
MIC ([2]; planktonic cells): > 1 mM and > 110 μg/ml
MIC [3, 9]: > 1 mM and > 110 μg/ml
MIC [4]: > 1 mM and > 110 μg/ml

O=C(O)c1cccnc1C(=O)O [pyCOOH, pyridine-2,3-dicarboxylic anion]
MIC ([1]; S. aureus, planktonic cells): > 1 mM and > 167 μg/ml
MIC ([2]; planktonic cells): > 1 mM and > 167 μg/ml
MIC [3, 9]: > 1 mM and > 167 μg/ml
MIC [4]: > 1 mM and > 167 μg/ml

OCc1ccccn1 [pyOH, 2-hydroxymethylpyridyne]
MIC ([1]; S. aureus, planktonic cells): > 1 mM and > 109 μg/ml
MIC ([2]; planktonic cells): > 1 mM and > 109 μg/ml
MIC [3, 9]: > 1 mM and > 109 μg/ml
MIC [4]: > 1 mM and > 109 μg/ml
